Each compound was assayed against T1, human cloned 5-HT6 receptors (Homo sapiens, UniProt P50406) (assay: 5-HT6 binding affinity, [3H]-LSD displacement in membranes of Hela cells). Settings: not given.
T1 construct: expressed in transfected cells; host or cells: Hela cells
T1 sequence (P50406 whole entry): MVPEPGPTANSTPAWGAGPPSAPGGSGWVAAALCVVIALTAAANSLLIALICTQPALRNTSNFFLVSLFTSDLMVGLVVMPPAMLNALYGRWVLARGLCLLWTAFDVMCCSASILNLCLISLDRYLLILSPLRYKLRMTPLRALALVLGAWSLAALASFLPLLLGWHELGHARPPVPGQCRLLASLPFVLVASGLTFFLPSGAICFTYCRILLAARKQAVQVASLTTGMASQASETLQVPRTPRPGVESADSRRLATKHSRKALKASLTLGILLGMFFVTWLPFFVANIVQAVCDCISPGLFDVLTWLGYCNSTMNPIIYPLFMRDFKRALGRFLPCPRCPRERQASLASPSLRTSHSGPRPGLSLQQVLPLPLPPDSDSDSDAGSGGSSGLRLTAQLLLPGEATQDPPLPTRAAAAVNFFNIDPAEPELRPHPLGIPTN
Procedure: The affinity of test compounds for the serotonin 5-HT6 receptor is evaluated in the following manner. Cultured Hela cells expressing human cloned 5-HT6 receptors are harvested and centrifuged at low speed (1,000×g) for 10.0 min to remove the culture media. The harvested cells are suspended in half volume of fresh physiological phosphate buffered saline solution and recentrifuged at the same speed. This operation is repeated. The collected cells are then homogenized in ten volumes of 50 mM Tris.HCl (pH 7.4) and 0.5 mM EDTA. The homogenate is centrifuged at 40,000×g for 30.0 min and the precipitate is collected. The obtained pellet is resuspended in 10 volumes of Tris.HCl buffer and recentrifuged at the same speed. The final pellet is suspended in a small volume of Tris.HCl buffer and the tissue protein content is determined in aliquots of 10-25 μl volumes. Bovine Serum Albumin is used as the standard in the protein determination according to the method described in Lowry et al., J. Biol. Chem., 193:265 (1951). The volume of the suspended cell membranes is adjusted to give a tissue protein concentration of 1.0 mg/ml of suspension. The prepared membrane suspension (10 times concentrated) is aliquoted in 1.0 ml volumes and stored at −70° C. until used in subsequent binding experiments.
The reaction is allowed to proceed in the dark for 120 min at room temperature, at which time, the bound ligand-receptor complex is filtered off on a 96 well unifilter with a Packard Filtermate® 196 Harvester. The bound complex caught on the filter disk is allowed to air dry and the radioactivity is measured in a Packard TopCount® equipped with six photomultiplier detectors, after the addition of 40.0 μl Microscint®-20 scintillant to each shallow well. The unifilter plate is heat-sealed and counted in a PackardTopCount® with a tritium efficiency of 31.0%.
Specific binding to the 5-HT6 receptor is defined as the total radioactivity bound less the amount bound in the presence of 10.0 μM unlabeled methiothepin. Binding in the presence of varying concentrations of test compound is expressed as a percentage of specific binding in the absence of test compound. The results are plotted as logit % bound versus log concentration of test compound. Nonlinear regression analysis of data points with a computer assisted program Prism® yields both the IC50 and the Ki values of test compounds with 95% confidence limits.
The amount of displacement by the test compound is given in percent (%) inhibition and is derived from the following equation: [formula] where B0 is the amount of CPM bound in the presence of the testing agent. NSB represents the CPM bound in the presence of a saturating concentration of a displacer and TB represents the total amount of CPM bound at zero (0) concentration of test compound.
Alternatively, a linear regression line of decline of data points is plotted, from which the IC50 value can be read off and the Ki value determined by solving the following equation: [formula] where L is the concentration of the radioactive ligand used and KD is the dissociation constant of the ligand for the receptor, both expressed in nM.
Work on N=C(N)NN=C(c1cn(S(=O)(=O)c2ccccc2)c2ccccc12)C1CCCCC1 [Example 2, 2-{Cyclohexyl[1-(phenylsulfonyl)-1H-indol-3-yl]methylidene}-hydrazinecarboximidamide] yielded an inhibition at 1 µM of 69.2%. CC(=NNC(=N)N)c1cn(S(=O)(=O)c2c(Cl)nc3sccn23)c2ccccc12 [Example 36, 2-(1-{1-[(6-chloroimidazo[2,1-b][1,3]thiazol-5-yl)sulfonyl]-1H-indol-3-yl}ethylidene)hydrazinecarboximidamide] was tested, and the Ki was 8 nM. With CCC(=NNC(=N)N)c1cn(S(=O)(=O)c2ccccc2)c2ccc(F)cc12 [Example 118, 2-{1-[5-fluoro-1-(phenylsulfonyl)-1H-indol-3-yl]propylidene}hydrazinecarboximidamide] the Ki was 7 nM. For CC(=NNC(=N)N)c1cn(S(=O)(=O)c2sc(N)nc2C)c2ccccc12 [Example 22, 2-(1-{1-[(2-amino-4-methyl-1,3-thiazol-5-yl)sulfonyl]-1H-indol-3-yl}ethylidene)hydrazinecarboximidamide], the Ki was 8 nM.

Same assay, conditions: test compound dose 10 nM; [3H]-LSD 3.0 nM
N=C(N)NN=C(c1cn(S(=O)(=O)c2ccc3ccccc3c2)c2ccccc12)C1CC1 [Example 66, 2-{cyclopropyl[1-(2-naphthylsulfonyl)-1H-indol-3-yl]methylidene}hydrazinecarboximidamide] gave an inhibition at 0.01 µM of 35.1%.

Same assay, conditions: test compound dose 100 nM; [3H]-LSD 3.0 nM
With COc1ccc(S(=O)(=O)n2cc(C(=NNC(=N)N)C3CC3)c3ccccc32)cc1 [Example 63, 2-(cyclopropyl{1-[(4-methoxyphenyl)sulfonyl]-1H-indol-3-yl}methylidene)hydrazinecarboximidamide] the inhibition at 0.1 µM was 58.9%. Compound CC(=NNC(=N)N)c1cn(S(=O)(=O)c2cccc3c(N(C)C)cccc23)c2ccccc12 [Example 38, 2-[1-(1-{[5-(dimethylamino)-1-naphthyl]sulfonyl}-1H-indol-3-yl)ethylidene]hydrazinecarboximidamide] has an inhibition at 0.1 µM of 25.8%. For COc1ccc(Cl)cc1S(=O)(=O)n1cc(C(C)=NNC(=N)N)c2ccccc21 [Example 34, 2-(1-{1-[(5-chloro-2-methoxyphenyl)sulfonyl]-1H-indol-3-yl}ethylidene)hydrazinecarboximidamide], the inhibition at 0.1 µM was 48%. With CCCCS(=O)(=O)n1cc(C(=NNC(=N)N)C2CC2)c2ccc(F)cc21 [Example 105, 2-[[1-(butylsulfonyl)-6-fluoro-1H-indol-3-yl](cyclopropyl)methylidene]hydrazinecarboximidamide] the inhibition at 0.1 µM was 58.4%. In the case of CC(=NNC(=N)N)c1cn(S(=O)(=O)c2ccc(-c3ccccc3)cc2)c2ccccc12 [Example 26, 2-{1-[1-([1,1′-biphenyl]-4-ylsulfonyl)-1H-indol-3-yl]ethylidene}hydrazinecarboximidamide], the inhibition at 0.1 µM is reported as 39.7%. With CC(=NNC(=N)N)c1cn(S(=O)(=O)c2sc3ccc(Cl)cc3c2C)c2ccccc12 [Example 35, 2-(1-{1-[(5-chloro-3-methyl-1-benzothien-2-yl)sulfonyl]-1H-indol-3-yl}ethylidene)hydrazinecarboximidamide] the inhibition at 0.1 µM was 39.1%. CC(=NNC(=N)N)c1cn(S(=O)(=O)c2cc(Cl)sc2Cl)c2ccccc12 [Example 41, 2-(1-{1-[(2,5-dichlorothien-3-yl)sulfonyl]-1H-indol-3-yl}ethylidene)hydrazinecarboximidamide] showed an inhibition at 0.1 µM of 55%. CCCNC(=N)NN=C(C)c1cn(S(=O)(=O)c2ccccc2)c2ccccc12 [Example 124, 2-{1-[1-(phenylsulfonyl)-1H-indol-3-yl]ethylidene}-N-propylhydrazinecarboximidamide] was tested, and the inhibition at 0.1 µM was 75.2%. CC(=NNC(=N)N)c1cn(S(=O)(=O)c2ccc(-c3ccccn3)s2)c2ccccc12 [Example 53, 2-(1-{1-[(5-pyridin-2-ylthien-2-yl)sulfonyl]-1H-indol-3-yl}ethylidene)hydrazinecarboximidamide] was tested, and the inhibition at 0.1 µM was 38.4%. Work on CC(=NNC(=N)N)c1cn(S(=O)(=O)c2c(Cl)nc3sccn23)c2ccccc12 [Example 36, 2-(1-{1-[(6-chloroimidazo[2,1-b][1,3]thiazol-5-yl)sulfonyl]-1H-indol-3-yl}ethylidene)hydrazinecarboximidamide] yielded an inhibition at 0.1 µM of 86.4%. In the case of CCCCS(=O)(=O)n1cc(C(C)=NNC(=N)N)c2ccccc21 [Example 58, 2-{1-[1-(butylsulfonyl)-1H-indol-3-yl]ethylidene}hydrazinecarboximidamide], the inhibition at 0.1 µM is reported as 78.3%. Work on CC(=NNC(=N)N)c1cn(S(=O)(=O)c2ccccc2)c2ccc(F)cc12 [Example 19, 2-{1-[5-fluoro-1-(phenylsulfonyl)-1H-indol-3-yl]ethylidene}hydrazinecarboximidamide] yielded an inhibition at 0.1 µM of 82.4%. For CC(=NNC(=N)N)c1cn(S(=O)(=O)c2cc(Br)c(Cl)s2)c2ccccc12 [Example 28, 2-(1-{1-[(4-bromo-5-chlorothien-2-yl)sulfonyl]-1H-indol-3-yl}ethylidene)hydrazinecarboximidamide], the inhibition at 0.1 µM was 58.3%. For CCCCS(=O)(=O)n1cc(C(C)=NNC(=N)N)c2cc(Cl)ccc21 [Example 75, 2-{1-[1-(butylsulfonyl)-5-chloro-1H-indol-3-yl]ethylidene}hydrazinecarboximidamide], the inhibition at 0.1 µM was 84.6%. CC(=NNC(=N)N)c1cn(S(=O)(=O)c2sc(N)nc2C)c2ccccc12 [Example 22, 2-(1-{1-[(2-amino-4-methyl-1,3-thiazol-5-yl)sulfonyl]-1H-indol-3-yl}ethylidene)hydrazinecarboximidamide] gave an inhibition at 0.1 µM of 90.5%. CS(=O)(=O)n1cc(C(=NNC(=N)N)C2CC2)c2ccccc21 [Example 57, 2-{cyclopropyl[1-(methylsulfonyl)-1H-indol-3-yl]methylidene}hydrazinecarboximidamide] showed an inhibition at 0.1 µM of 40.4%. CC(=NNC(=N)N)c1cn(S(=O)(=O)c2cccc3nsnc23)c2ccccc12 [Example 24, 2-{1-[1-(2,1,3-benzothiadiazol-4-ylsulfonyl)-1H-indol-3-yl]ethylidene}hydrazinecarboximidamide] showed an inhibition at 0.1 µM of 62.9%.

Same assay, conditions: test compound dose 1000 nM; [3H]-LSD 3.0 nM; read-out: % Inhibition
For N=C(N)NN=Cc1cn(S(=O)(=O)c2ccccc2)c2ccc(OCc3ccccc3)cc12 [Example 21, 2-{[5-(benzyloxy)-1-(phenylsulfonyl)-1H-indol-3-yl]methylidene}hydrazinecarboximidamide], the inhibition at 1 µM was 57.4%. CCCCC(=NNC(=N)N)c1cn(S(=O)(=O)c2ccc3ccccc3c2)c2ccc(Cl)cc12 [Example 82, 2-{1-[5-chloro-1-(2-naphthylsulfonyl)-1H-indol-3-yl]pentylidene}hydrazinecarboximidamide] gave an inhibition at 1 µM of 46.9%. CCCCC(=NNC(=N)N)c1cn(S(=O)(=O)c2ccc3ccccc3c2)c2cc(F)ccc12 [Example 110, 2-{1-[6-fluoro-1-(2-naphthylsulfonyl)-1H-indol-3-yl]pentylidene}hydrazinecarboximidamide] gave an inhibition at 1 µM of 60.2%. Cc1ccc(S(=O)(=O)n2cc(C=NN(C)C3=NCCN3)c3ccccc32)cc1 [Example 4, 1-[(4-methylphenyl)sulfonyl]-1H-indole-3-carbaldehyde 4,5-dihydro-1H-imidazol-2-yl(methyl)hydrazone] was tested, and the inhibition at 1 µM was 71.9%. For CCCCC(=NNC(=N)N)c1cn(S(=O)(=O)c2ccc3ccccc3c2)c2ccccc12 [Example 65, 2-{1-[1-(2-naphthylsulfonyl)-1H-indol-3-yl]pentylidene}hydrazinecarboximidamide], the inhibition at 1 µM was 62.3%. With COc1ccc(S(=O)(=O)n2cc(C(C)=NNC(=N)N)c3cc(Cl)ccc32)cc1 [Example 78, 2-(1-{5-chloro-1-[(4-methoxyphenyl)sulfonyl]-1H-indol-3-yl}ethylidene)hydrazinecarboximidamide] the inhibition at 1 µM was 85.5%. With CCCCC(=NNC(=N)N)c1cn(S(=O)(=O)c2ccc(OC)cc2)c2ccc(Cl)cc12 [Example 79, 2-(1-{5-chloro-1-[(4-methoxyphenyl)sulfonyl]-1H-indol-3-yl}pentylidene)hydrazinecarboximidamide] the inhibition at 1 µM was 61%. In the case of CCCCC(=NNC(=N)N)c1cn(S(=O)(=O)c2ccc(OC)c(OC)c2)c2ccc(Cl)cc12 [Example 88, 2-(1-{5-chloro-1-[(3,4-dimethoxyphenyl)sulfonyl]-1H-indol-3-yl}pentylidene)hydrazinecarboximidamide], the inhibition at 1 µM is reported as 65.6%. For N=C(N)NN=C(c1cn(S(=O)(=O)c2ccc3ccccc3c2)c2ccc(Cl)cc12)C1CC1 [Example 83, 2-[[5-chloro-1-(2-naphthylsulfonyl)-1H-indol-3-yl](cyclopropyl)methylidene]hydrazinecarboximidamide], the inhibition at 1 µM was 89.3%. Compound CCCCC(=NNC(=N)N)c1cn(S(=O)(=O)c2ccc(OC)cc2)c2cc(F)ccc12 [Example 107, 2-(1-{6-fluoro-1-[(4-methoxyphenyl)sulfonyl]-1H-indol-3-yl}pentylidene)hydrazinecarboximidamide] has an inhibition at 1 µM of 61.5%.
